Data on six compounds can be found in PubChem BioAssay (NCI).

Common to all, as to experiment: NCI tumour cell line growth inhibition, 48 h
For experiment [1], the system named is CAKI-1 renal.
Experiment [2] relates to HS 578T breast.
Experiment [3] has as its system K-562 leukemia.
Experiment [4] concerns MDA-MB-231 breast.
The subject of experiment [5] is PC-3 prostate.
Experiment [6] relates to SK-MEL-2 melanoma.
Experiment [7] deals with SK-MEL-28 melanoma.
The subject of experiment [8] is T-47D breast.
For experiment [9], the system named is U251 CNS.
Experiment [10] has as its system SNB-75 CNS.

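Method: 48-hour compound exposure of cells in 96-well plates, five concentrations, linear interpolation of endpoints. GI50: concentration for 50% inhibition of growth. The concentration for full growth arrest is given as TGI.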 *1 amine or outer side, *2 acyl side, *3 side chain or, on linkers, in order; H or OH if unused. Where a SMILES comes first, the peptide text is derived from it. [ ]: non-standard residue; d: D form. The star is where a group is joined. ξ: configuration not given here. X15 = CCN(CC)c1ccc2cc(N*)c(=O)oc2c1; dIva = CC[C@@](C)(N)C(=O)O; X14 = O=C(OCCN[*:1])[*:2]; Aib = CC(C)(N)C(=O)O; ξP = O=C(O)C1CCCN1; βAla = NCCC(=O)O Bounds are passed on as bounds.

For `CC12CC(OC(=O)[C@]1(C)O)[C@@H]([C@]1(O)CC[C@H]3[C@@H]4C[C@H]5O[C@]56[C@@H](O)C=CC(=O)[C@]6(C)[C@H]4CC[C@@]31C)C2` (some centres not stated), the TGI was 24.9 µM in experiment [1]; 35.7 µM in experiment [2]; 13.8 µM in experiment [3]; 16.7 µM in experiment [4]; 26.5 µM in [5]; 21 µM in experiment [6]. Besides, the TGI was found to be 30.2 µM in experiment [7], 32.9 µM in [8] and 30 µM in [9].

Consider `FC(F)(F)c1ccc(-c2cnc(Cl)nc2NCc2cc(C(F)(F)F)cc(C(F)(F)F)c2)cc1`, for which the GI50 in [1] was 2.1 µM; in experiment [2], 3.03 µM; in [3], 3.77 µM; in experiment [4] it was 2.19 µM; in experiment [6] it was 2.35 µM; in [7], 3.93 µM. For the same compound, the GI50 in experiment [10] is 1.7 µM; in [8], 3.14 µM; in experiment [9], 2.81 µM. Besides, the TGI in [1] was 7.52 µM; in experiment [2], > 100 µM; in experiment [3] it was > 100 µM; in [4] it was 6.4 µM; in experiment [6], 5.28 µM; in experiment [7] it was > 100 µM. Also, the TGI in [10], in experiment [8] and in experiment [9] was > 100 µM throughout.

On to `Cc1c(Cl)cccc1NC1=C(Cl)C(=O)N(Cc2ccccc2)C1=O`, for which the GI50 in experiment [1] is 1.11 µM; in [2], 10.9 µM; in [3], 4.25 µM; in [5] it was 4.85 µM; in experiment [6], 27.5 µM; in [7], 15.1 µM. Further, the GI50 in experiment [8] was 25.4 µM; in [9] it was 6.24 µM. For the same compound, the TGI in [1] came out at 5.06 µM; in [2] it was 24.8 µM; in experiment [3], 16.9 µM; in experiment [5], 19 µM; in [6], 89.9 µM; in experiment [7], 30.7 µM. Further, the TGI in [8] is > 100 µM; in experiment [9], 20.1 µM.

For `CCN(CC)c1ccc2cc(NC(=O)OCCNC(=O)CCNC(=O)[C@H](CC(C)C)NC(=O)C(C)(C)NC(=O)C(C)(C)NC(=O)[C@H](CC(C)C)NC(=O)CCNC(=O)C(C)(C)NC(=O)[C@H](CC(C)C)NC(=O)CCNC(=O)[C@@](C)(CC)NC(=O)[C@H](C)NC(=O)CCNC(=O)C(C)(C)NC(=O)[C@H](C)NC(=O)[C@@H]3CCCN3C(=O)[C@@](C)(CC)NC(=O)[C@H](Cc3ccccc3)NC(=O)C3CCCN3C(=O)C(C)(C)NC(=O)C3CCCN3C(=O)C(C)(C)NC(C)=O)c(=O)oc2c1` (some centres not stated) (Ac-[Aib][ξP][Aib][ξP]F[dIva]PA[Aib][βAla]A[dIva][βAla]L[Aib][βAla]L[Aib][Aib]L[βAla][X14]-X15), the GI50 is 0.156 µM in experiment [1]; 0.0045 µM in [2]; 0.00417 µM in experiment [3]; 0.00311 µM in [5]; 0.00266 µM in experiment [6]; 0.00783 µM in [7]. In addition, the values for the GI50 in experiment [10], in experiment [8] and in experiment [9] were 0.00254 µM, 0.00302 µM and 0.00317 µM, respectively. For the same compound, the TGI was 0.304 µM in experiment [1]; 0.0548 µM in [2]; 0.0237 µM in experiment [3]; 0.0281 µM in experiment [5]; 0.00665 µM in [6]; 0.0325 µM in [7]. In addition, the figures for the TGI in experiment [10], in experiment [8] and in experiment [9] were 0.0242 µM, 0.0143 µM and 0.0162 µM, respectively.

`COc1ccc(-c2nn(-c3cccc(Cl)c3)cc2-c2cc(-c3ccccc3)nc(N)n2)cc1`: the GI50 in experiment [1] was 1.77 µM; in experiment [2], 3.03 µM; in experiment [3], 1.92 µM; in experiment [5] it was 1.6 µM; in experiment [6], 3.23 µM; in experiment [7], 12.4 µM. For the same compound, the GI50 in experiment [10] is 4.32 µM; in experiment [8], 4.49 µM; in experiment [9], 1.59 µM. In addition, the TGI turned out to be 10.7 µM in [1]; 18.4 µM in experiment [2]; 5.37 µM in experiment [3]; 6.56 µM in experiment [5]; 10.7 µM in experiment [6]; 42.1 µM in experiment [7]. The results for the TGI in experiment [10], in experiment [8] and in experiment [9] were 22 µM, 17.1 µM and 3.03 µM, respectively.

Regarding `Cn1cc(-c2ccc(-c3cn(C)c4ccc(Cl)cc34)s2)c2cc(Cl)ccc21`, the GI50 in [1], in experiment [2], in experiment [3], in [4], in [5] and in experiment [6] was > 100 µM throughout. In addition, the GI50 in experiment [7], in [10] and in [9] was > 100 µM each time. Further, the TGI in [1], in experiment [2], in experiment [3], in experiment [4], in experiment [5] and in experiment [6] was > 100 µM in each case. Moreover, the TGI in experiment [7], in experiment [10] and in experiment [9] was > 100 µM throughout.
